Laboratory results as given in ChEMBL document CHEMBL4507264, “Data for DCP probe BAY-7598” (2021).

How the values were obtained:
Rattus norvegicus = species: Rattus norvegicus; assay: Testosterone Eurofins-Panlabs radioligand binding assay; set-up: ligand concentration 1.5 nM; settings: Compound concentration 10.0 uM
[1] = biological target: T1, D(4) dopamine receptor (Homo sapiens) (UniProt P21917); assay: Inhibition of Dopamine D4.2 at 10 µM in the Eurofins-Panlabs radioligand binding assay (Eurofins_assay_219900); set-up: ligand concentration 0.5 nM; settings: Compound concentration 10.0 uM
T1 sequence (whole entry): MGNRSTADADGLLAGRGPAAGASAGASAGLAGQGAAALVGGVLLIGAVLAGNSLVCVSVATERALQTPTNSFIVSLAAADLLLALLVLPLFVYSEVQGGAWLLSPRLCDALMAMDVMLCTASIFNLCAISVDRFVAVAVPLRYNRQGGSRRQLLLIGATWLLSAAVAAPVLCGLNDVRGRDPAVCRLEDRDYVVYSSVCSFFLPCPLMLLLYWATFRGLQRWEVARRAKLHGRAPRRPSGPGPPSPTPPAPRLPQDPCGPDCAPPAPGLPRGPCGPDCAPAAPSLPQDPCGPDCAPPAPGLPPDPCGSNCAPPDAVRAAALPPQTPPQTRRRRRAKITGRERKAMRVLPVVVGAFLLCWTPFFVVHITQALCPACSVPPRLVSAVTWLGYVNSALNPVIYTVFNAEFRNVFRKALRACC

[2] = biological target: Epidermal growth factor receptor (Homo sapiens) (UniProt P00533); assay: Inhibition of Epidermal Growth Factor (EGF) at 10 µM in the Eurofins-Panlabs radioligand binding assay (Eurofins_assay_225510); settings: Compound concentration 10.0 uM
Sequence of Epidermal growth factor receptor (Homo sapiens) (P00533 whole entry): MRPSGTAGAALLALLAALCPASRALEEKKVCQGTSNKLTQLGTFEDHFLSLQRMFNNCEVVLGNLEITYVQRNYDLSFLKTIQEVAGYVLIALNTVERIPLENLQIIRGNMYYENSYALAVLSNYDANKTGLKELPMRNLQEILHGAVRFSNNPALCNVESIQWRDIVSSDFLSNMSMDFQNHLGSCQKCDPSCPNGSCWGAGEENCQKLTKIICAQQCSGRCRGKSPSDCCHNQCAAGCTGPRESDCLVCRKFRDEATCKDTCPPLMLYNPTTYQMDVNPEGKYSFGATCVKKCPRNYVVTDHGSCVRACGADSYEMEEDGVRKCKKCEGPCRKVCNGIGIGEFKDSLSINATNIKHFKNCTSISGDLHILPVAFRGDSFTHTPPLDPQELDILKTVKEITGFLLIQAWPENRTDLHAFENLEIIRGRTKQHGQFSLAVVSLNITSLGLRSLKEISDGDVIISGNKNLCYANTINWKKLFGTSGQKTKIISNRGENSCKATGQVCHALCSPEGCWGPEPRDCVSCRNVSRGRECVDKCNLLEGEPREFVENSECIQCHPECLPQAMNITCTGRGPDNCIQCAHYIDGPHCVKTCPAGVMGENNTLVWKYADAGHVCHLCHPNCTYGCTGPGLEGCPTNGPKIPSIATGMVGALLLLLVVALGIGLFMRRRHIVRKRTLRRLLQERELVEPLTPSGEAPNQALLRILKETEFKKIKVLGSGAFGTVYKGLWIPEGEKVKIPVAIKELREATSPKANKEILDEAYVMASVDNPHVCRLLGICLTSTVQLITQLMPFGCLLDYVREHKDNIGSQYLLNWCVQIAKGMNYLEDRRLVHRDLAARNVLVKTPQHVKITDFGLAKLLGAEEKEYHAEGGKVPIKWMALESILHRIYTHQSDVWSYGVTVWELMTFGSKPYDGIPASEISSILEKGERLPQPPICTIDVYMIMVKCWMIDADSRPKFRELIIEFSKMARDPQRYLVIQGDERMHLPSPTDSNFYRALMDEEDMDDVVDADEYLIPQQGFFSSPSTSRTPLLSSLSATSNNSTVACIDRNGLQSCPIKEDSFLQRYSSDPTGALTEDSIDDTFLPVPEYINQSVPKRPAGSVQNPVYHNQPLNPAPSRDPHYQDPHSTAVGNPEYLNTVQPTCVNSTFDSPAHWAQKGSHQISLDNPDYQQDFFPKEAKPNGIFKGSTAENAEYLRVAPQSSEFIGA

[3] = biological target: ATP-sensitive inward rectifier potassium channel 11 (Cricetulus griseus) (UniProt A0A3L7HHE1); assay: Inhibition of Potassium Channel [KATP] at 10 µM in the Eurofins-Panlabs radioligand binding assay (Eurofins_assay_265600); settings: Cricetinae; Compound concentration 10.0 uM
Sequence of ATP-sensitive inward rectifier potassium channel 11 (Cricetulus griseus) (A0A3L7HHE1 as listed by the source): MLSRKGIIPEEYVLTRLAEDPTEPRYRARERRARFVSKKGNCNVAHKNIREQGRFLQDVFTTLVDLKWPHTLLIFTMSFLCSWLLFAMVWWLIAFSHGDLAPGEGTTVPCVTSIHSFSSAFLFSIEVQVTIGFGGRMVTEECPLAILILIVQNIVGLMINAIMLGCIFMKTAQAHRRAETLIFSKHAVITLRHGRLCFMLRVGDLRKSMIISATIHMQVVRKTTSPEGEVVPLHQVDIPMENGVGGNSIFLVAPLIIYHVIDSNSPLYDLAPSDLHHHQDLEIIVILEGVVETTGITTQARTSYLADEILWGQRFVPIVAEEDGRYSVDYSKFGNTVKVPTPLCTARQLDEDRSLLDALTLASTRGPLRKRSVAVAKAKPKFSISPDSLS

[4] = biological target: voltage-gated sodium channel, site 2 (Rattus norvegicus, UniProt F1LQQ7+O08562+O88420+O88457+P04774+P04775+P08104+P15389+P15390+Q62968); assay: Inhibition of Sodium Channel, Site 2 at 10 µM in the Eurofins-Panlabs radioligand binding assay (Eurofins_assay_279510); format: protein assay; set-up: ligand concentration 5 nM, non-specific ligand with concentration 100 µM Veratridine, incubation time 60 min, incubation temperature 37 °C; settings: male, Wistar, rat whole brain (except cerebellum) membranes, probe [3H] Batrachotoxinin, compound concentration 10 uM
[5] = biological target: Beta-2 adrenergic receptor (Homo sapiens) (UniProt P07550); settings: Compound concentration 10.0 uM
Sequence of Beta-2 adrenergic receptor (Homo sapiens) (P07550 whole entry, looked up): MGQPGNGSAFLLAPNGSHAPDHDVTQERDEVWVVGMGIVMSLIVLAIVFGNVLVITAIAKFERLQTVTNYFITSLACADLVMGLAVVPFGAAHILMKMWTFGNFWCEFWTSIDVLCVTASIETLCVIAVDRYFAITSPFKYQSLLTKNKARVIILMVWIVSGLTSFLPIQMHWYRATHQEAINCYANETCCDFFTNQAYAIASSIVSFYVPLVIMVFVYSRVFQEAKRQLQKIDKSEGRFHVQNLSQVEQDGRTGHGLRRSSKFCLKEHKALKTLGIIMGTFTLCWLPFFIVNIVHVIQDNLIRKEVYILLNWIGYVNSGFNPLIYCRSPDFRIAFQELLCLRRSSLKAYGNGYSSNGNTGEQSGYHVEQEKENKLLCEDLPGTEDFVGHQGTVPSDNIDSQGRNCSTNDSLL

[6] = biological target: Muscarinic acetylcholine receptor M3 (Homo sapiens) (UniProt P20309); settings: Compound concentration 10.0 uM
Sequence of Muscarinic acetylcholine receptor M3 (Homo sapiens) (P20309 whole entry, looked up): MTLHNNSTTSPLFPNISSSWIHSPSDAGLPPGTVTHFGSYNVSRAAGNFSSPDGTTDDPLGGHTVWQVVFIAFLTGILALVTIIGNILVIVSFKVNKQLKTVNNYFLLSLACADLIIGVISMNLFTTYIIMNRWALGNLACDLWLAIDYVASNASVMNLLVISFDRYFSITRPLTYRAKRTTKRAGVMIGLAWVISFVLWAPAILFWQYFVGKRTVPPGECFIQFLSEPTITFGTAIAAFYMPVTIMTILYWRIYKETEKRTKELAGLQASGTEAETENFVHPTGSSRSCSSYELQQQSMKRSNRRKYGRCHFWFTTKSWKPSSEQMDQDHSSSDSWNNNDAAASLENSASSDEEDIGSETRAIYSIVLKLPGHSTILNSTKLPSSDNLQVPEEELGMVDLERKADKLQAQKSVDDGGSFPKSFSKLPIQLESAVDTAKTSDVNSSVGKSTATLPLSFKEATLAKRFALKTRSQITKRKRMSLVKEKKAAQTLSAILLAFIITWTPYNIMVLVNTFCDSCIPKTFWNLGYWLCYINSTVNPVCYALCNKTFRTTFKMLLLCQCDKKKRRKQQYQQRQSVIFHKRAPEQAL

[7] = biological target: T2, 5-hydroxytryptamine receptor 1A (Homo sapiens) (UniProt P08908); settings: Compound concentration 10.0 uM
T2 sequence (whole entry): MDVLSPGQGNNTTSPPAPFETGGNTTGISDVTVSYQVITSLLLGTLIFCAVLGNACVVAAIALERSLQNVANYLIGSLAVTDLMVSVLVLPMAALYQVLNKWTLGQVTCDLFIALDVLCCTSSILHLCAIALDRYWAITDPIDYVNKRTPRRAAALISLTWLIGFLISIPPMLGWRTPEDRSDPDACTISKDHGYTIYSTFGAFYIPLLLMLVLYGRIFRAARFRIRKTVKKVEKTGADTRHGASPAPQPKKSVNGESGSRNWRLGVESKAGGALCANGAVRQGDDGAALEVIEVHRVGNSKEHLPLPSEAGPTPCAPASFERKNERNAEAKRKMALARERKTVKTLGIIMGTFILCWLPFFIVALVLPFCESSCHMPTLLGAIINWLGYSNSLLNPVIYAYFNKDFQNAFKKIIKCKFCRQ

[8] = biological target: 5-hydroxytryptamine receptor 2B (Homo sapiens) (UniProt P41595); settings: Compound concentration 10.0 uM
Sequence of 5-hydroxytryptamine receptor 2B (Homo sapiens) (P41595 whole entry): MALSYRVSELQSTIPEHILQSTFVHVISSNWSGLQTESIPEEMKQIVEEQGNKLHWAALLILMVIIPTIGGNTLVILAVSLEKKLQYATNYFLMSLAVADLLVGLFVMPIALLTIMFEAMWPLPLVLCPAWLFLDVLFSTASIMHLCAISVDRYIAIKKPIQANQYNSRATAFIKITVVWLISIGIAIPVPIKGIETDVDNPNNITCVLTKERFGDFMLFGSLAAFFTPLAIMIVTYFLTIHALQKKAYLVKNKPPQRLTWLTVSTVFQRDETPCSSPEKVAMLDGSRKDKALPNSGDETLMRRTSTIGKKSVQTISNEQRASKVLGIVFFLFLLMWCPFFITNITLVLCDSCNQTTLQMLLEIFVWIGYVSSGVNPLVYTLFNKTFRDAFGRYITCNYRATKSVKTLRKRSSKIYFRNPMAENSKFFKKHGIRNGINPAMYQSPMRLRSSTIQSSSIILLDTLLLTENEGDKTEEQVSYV

[9] = biological target: Sodium-dependent dopamine transporter (Homo sapiens) (UniProt Q01959); settings: Compound concentration 10.0 uM
Sequence of Sodium-dependent dopamine transporter (Homo sapiens) (Q01959 whole entry): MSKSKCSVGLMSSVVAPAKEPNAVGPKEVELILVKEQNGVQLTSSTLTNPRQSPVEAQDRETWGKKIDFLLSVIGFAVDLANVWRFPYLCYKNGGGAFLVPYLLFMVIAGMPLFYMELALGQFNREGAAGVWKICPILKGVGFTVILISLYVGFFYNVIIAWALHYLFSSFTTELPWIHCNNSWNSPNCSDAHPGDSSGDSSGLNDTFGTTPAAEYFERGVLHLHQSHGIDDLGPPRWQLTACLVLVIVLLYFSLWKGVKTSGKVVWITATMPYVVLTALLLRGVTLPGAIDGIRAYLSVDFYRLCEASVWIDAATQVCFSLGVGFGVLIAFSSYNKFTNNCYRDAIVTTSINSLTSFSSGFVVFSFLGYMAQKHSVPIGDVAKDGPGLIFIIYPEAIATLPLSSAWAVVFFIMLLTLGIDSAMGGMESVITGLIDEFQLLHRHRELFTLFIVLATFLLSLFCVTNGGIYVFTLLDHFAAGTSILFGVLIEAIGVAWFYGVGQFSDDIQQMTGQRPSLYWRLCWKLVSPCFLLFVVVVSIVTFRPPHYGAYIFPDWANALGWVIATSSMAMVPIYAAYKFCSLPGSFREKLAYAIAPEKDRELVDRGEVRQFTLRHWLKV

Compound `O=C(O)[C@H]1[C@H](Cn2nnc3ccccc3c2=O)CC[C@@H]1C(=O)c1ccc(OCCC2CCOCC2)cc1` [BAY-7598] has an inhibition (Rattus norvegicus) of 12%, an inhibition [1] of -2% and an inhibition [2] of 7%. For the same compound, the inhibition [3] was 9%, the inhibition at 60 min, 10 µM [4] was -1% (not active) and the inhibition [5] was 4%. The inhibition [6] was 2%, the inhibition [7] was -9% and the inhibition [8] was 4%. It also gave an inhibition [9] of 0%.
